In patent publication US8217043B2, “Compounds and methods for their use” (Fibrogen, Inc., priority 2008, dated 2012):

Target: T1, HIF-PH2 (EGLN1) (Homo sapiens, UniProt Q9GZT9)
T1 construct: made in house; host or cells: insect Hi5 cells
Test: HIF-PH assay (14CO2 capture, peptide-dependent turnover)
Type: biochemical
Details: for inhibition at 200 µM: Concentration 200 μM; for inhibition at 125 µM: Concentration 125 μM; for inhibition at 50 µM: Concentration 50 μM; for inhibition at 67 µM: Concentration 67 μM
Source text: Ketoglutaric acid α-[1-^14C]-sodium salt, alpha-ketoglutaric acid sodium salt, and HPLC purified peptide may be obtained from commercial sources, e.g., Perkin-Elmer (Wellesley Mass.), Sigma-Aldrich, and SynPep Corp. (Dublin Calif.), respectively. Peptides for use in the assay may be fragments of HIFα as described above or as disclosed in International Publication WO 2005/118836, incorporated by reference herein. HIF-PH, e.g., HIF-PH2 (EGLN1), can be expressed in, e.g., insect Hi5 cells, and partially purified, e.g., through a SP ion exchange chromatography column. Enzyme activity is determined by capturing ^14CO2 using an assay described by Kivirikko and Myllyla (1982, Methods Enzymol. 82:245-304). Assay reactions contain 50 mM HEPES (pH 7.4), 100 μM α-ketoglutaric acid sodium salt, 0.30 μCi/mL ketoglutaric acid α-[1-^14C]-sodium salt, 40 μM FeSO4, 1 mM ascorbate, 1541.8 units/mL Catalase, with or without 50 μM peptide substrate and various concentrations of compound of the invention. Reactions are initiated by addition of HIF-PH enzyme.
The peptide-dependent percent turnover is calculated by subtracting percent turnover in the absence of peptide from percent turnover in the presence of substrate peptide. Percent inhibition and IC50 are calculated using peptide-dependent percent turnover at given inhibitor concentrations. Calculation of IC50 values for each inhibitor is conducted using GraFit software (Erithacus Software Ltd., Surrey UK).
Representative compounds of the invention were analyzed using the HIF-PH assay described above. Table 1 presents enzyme inhibition data for exemplary compounds against HIF-PH2, a representative HIF prolyl hydroxylase. By inhibiting HIF prolyl hydroxylase, compounds of the invention stabilize HIFα, which then combines with HIFβ to form an active transcription factor that increases expression of various genes involved in numerous beneficial cellular processes.

T1 sequence (Q9GZT9 whole entry, species assumed): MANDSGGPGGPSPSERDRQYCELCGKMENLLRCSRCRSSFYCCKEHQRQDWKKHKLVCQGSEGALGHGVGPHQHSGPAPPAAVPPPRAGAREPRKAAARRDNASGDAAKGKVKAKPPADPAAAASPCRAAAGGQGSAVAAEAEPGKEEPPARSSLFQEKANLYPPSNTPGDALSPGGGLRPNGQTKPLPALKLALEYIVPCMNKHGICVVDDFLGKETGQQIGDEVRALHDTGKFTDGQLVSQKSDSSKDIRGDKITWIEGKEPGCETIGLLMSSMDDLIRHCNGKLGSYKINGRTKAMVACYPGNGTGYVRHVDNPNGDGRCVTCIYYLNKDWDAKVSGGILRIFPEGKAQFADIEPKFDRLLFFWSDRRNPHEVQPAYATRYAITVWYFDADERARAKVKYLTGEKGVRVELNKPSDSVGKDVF

Question: How did the inhibition at 200 µM turn out when `O=C(O)CNC(=O)c1c(O)c2cccn2n(Cc2ccccc2)c1=O` [Example 1, [(1-Benzyl-4-hydroxy-2-oxo-1,2-dihydro-pyrrolo[1,2-b]pyridazine-3-carbonyl)-amino]-acetic acid] was run?
Answer: The inhibition at 200 µM was 100%.

Question: `O=C(O)CNC(=O)c1c(O)c2c(Cl)c(Cl)c(Cl)n2n(Cc2ccccc2)c1=O` [Example 2, [(1-Benzyl-5,6,7-trichloro-4-hydroxy-2-oxo-1,2-dihydro-pyrrolo[1,2-b]pyridazine-3-carbonyl)-amino]-acetic acid] was tested. Which inhibition at 22 µM (Concentration 22 μM) did it give?
Answer: The inhibition at 22 µM was 99%.

Question: Which inhibition at 200 µM does the source give for `O=C(O)CNC(=O)c1c(O)c2cccn2n(Cc2ccc(F)cc2)c1=O` [Example 3, {[1-(4-Fluoro-benzyl)-4-hydroxy-2-oxo-1,2-dihydro-pyrrolo[1,2-b]pyridazine-3-carbonyl]-amino}-acetic acid] here?
Answer: Its inhibition at 200 µM is 100%.

Question: With `O=C(O)CNC(=O)c1c(O)c2cccn2[nH]c1=O` [Example 4, [(4-Hydroxy-2-oxo-1,2-dihydro-pyrrolo[1,2-b]pyridazine-3-carbonyl)-amino]-acetic acid] as the compound, how does the inhibition at 125 µM read?
Answer: Its inhibition at 125 µM is 84%.

Question: How did the inhibition at 125 µM turn out when `O=C(O)CNC(=O)c1c(O)c2cccn2n(Cc2ccccc2F)c1=O` [Example 5, {[1-(2-Fluoro-benzyl)-4-hydroxy-2-oxo-1,2-dihydro-pyrrolo[1,2-b]pyridazine-3-carbonyl]-amino}-acetic acid] was run?
Answer: Its inhibition at 125 µM is 96%.

Question: How did the inhibition at 200 µM turn out when `O=C(O)CNC(=O)c1c(O)c2cccn2n(Cc2ccc(F)cc2F)c1=O` [Example 6, {[1-(2,4-Difluoro-benzyl)-4-hydroxy-2-oxo-1,2-dihydro-pyrrolo[1,2-b]pyridazine-3-carbonyl]-amino}-acetic acid] was run?
Answer: Its inhibition at 200 µM is 100%.

Question: For `O=C(O)CNC(=O)c1c(O)c2cccn2n(Cc2ccccc2Cl)c1=O` [Example 7, {[1-(2-Chloro-benzyl)-4-hydroxy-2-oxo-1,2-dihydro-pyrrolo[1,2-b]pyridazine-3-carbonyl]-amino}-acetic acid], which inhibition at 200 µM is on record?
Answer: The inhibition at 200 µM was 100%.

Question: `O=C(O)CNC(=O)c1c(O)c2cccn2n(Cc2cccc(Cl)c2)c1=O` [Example 8, {[1-(3-Chloro-benzyl)-4-hydroxy-2-oxo-1,2-dihydro-pyrrolo[1,2-b]pyridazine-3-carbonyl]-amino}-acetic acid] was tested. Which inhibition at 200 µM did it give?
Answer: The inhibition at 200 µM was 100%.

Question: `O=C(O)CNC(=O)c1c(O)c2cccn2n(Cc2ccc3ccccc3c2)c1=O` [Example 9, [(4-Hydroxy-1-naphthalen-2-ylmethyl-2-oxo-1,2-dihydro-pyrrolo[1,2-b]pyridazine-3-carbonyl)-amino]-acetic acid] was tested. Which inhibition at 200 µM did it give?
Answer: Its inhibition at 200 µM is 100%.

Question: With `O=C(O)CNC(=O)c1c(O)c2cccn2n(Cc2ccc(C(F)(F)F)cc2)c1=O` [Example 10, {[1-(4-Trifluoromethyl-benzyl)-4-hydroxy-2-oxo-1,2-dihydro-pyrrolo[1,2-b]pyridazine-3-carbonyl]-amino}-acetic acid] as the compound, how does the inhibition at 200 µM read?
Answer: The inhibition at 200 µM was 100%.

Question: With `O=C(O)CNC(=O)c1c(O)c2cccn2n(Cc2ccc(Cl)cc2)c1=O` [Example 11, {[1-(4-Chloro-benzyl)-4-hydroxy-2-oxo-1,2-dihydro-pyrrolo[1,2-b]pyridazine-3-carbonyl]-amino}-acetic acid] as the compound, how does the inhibition at 200 µM read?
Answer: The inhibition at 200 µM was 100%.

Question: With `COc1ccc(Cn2c(=O)c(C(=O)NCC(=O)O)c(O)c3cccn32)cc1` [Example 12, {[1-(4-Methoxy-benzyl)-4-hydroxy-2-oxo-1,2-dihydro-pyrrolo[1,2-b]pyridazine-3-carbonyl]-amino}-acetic acid] as the compound, how does the inhibition at 200 µM read?
Answer: The inhibition at 200 µM was 100%.

Question: `O=C(O)CNC(=O)c1c(O)c2cccn2n(Cc2cccc(C(F)(F)F)c2)c1=O` [Example 13, {[1-(3-Trifluoromethyl-benzyl)-4-hydroxy-2-oxo-1,2-dihydro-pyrrolo[1,2-b]pyridazine-3-carbonyl]-amino}-acetic acid] was tested. Which inhibition at 125 µM did it give?
Answer: Its inhibition at 125 µM is 97%.

Question: How did the inhibition at 125 µM turn out when `O=C(O)CNC(=O)c1c(O)c2cccn2n(Cc2cccc(F)c2)c1=O` [Example 14, {[1-(3-Fluoro-benzyl)-4-hydroxy-2-oxo-1,2-dihydro-pyrrolo[1,2-b]pyridazine-3-carbonyl]-amino}-acetic acid] was run?
Answer: Its inhibition at 125 µM is 98%.

Question: `O=C(O)CNC(=O)c1c(O)c2cccn2n(Cc2c(F)cccc2F)c1=O` [Example 15, {[1-(2,6-Difluoro-benzyl)-4-hydroxy-2-oxo-1,2-dihydro-pyrrolo[1,2-b]pyridazine-3-carbonyl]-amino}-acetic acid] was tested. Which inhibition at 125 µM did it give?
Answer: The inhibition at 125 µM was 94%.

Question: How did the inhibition at 125 µM turn out when `O=C(O)CNC(=O)c1c(O)c2cccn2n(Cc2ccccc2C(F)(F)F)c1=O` [Example 16, {[1-(2-Trifluoromethyl-benzyl)-4-hydroxy-2-oxo-1,2-dihydro-pyrrolo[1,2-b]pyridazine-3-carbonyl]-amino}-acetic acid] was run?
Answer: Its inhibition at 125 µM is 98%.

Question: `CCCCn1c(=O)c(C(=O)NCC(=O)O)c(O)c2cccn21` [Example 17, [(1-Butyl-4-hydroxy-2-oxo-1,2-dihydro-pyrrolo[1,2-b]pyridazine-3-carbonyl)-amino]-acetic acid] was tested. Which inhibition at 50 µM did it give?
Answer: Its inhibition at 50 µM is 97%.

Question: How did the inhibition at 50 µM turn out when `O=C(O)CNC(=O)c1c(O)c2cc3ccccc3n2n(Cc2ccc(F)cc2)c1=O` [Example 18, {[4-(4-Fluoro-benzyl)-1-hydroxy-3-oxo-3,4-dihydro-4,4a-diaza-fluorene-2-carbonyl]-amino}-acetic acid] was run?
Answer: The inhibition at 50 µM was 96%.

Question: How did the inhibition at 50 µM turn out when `C[C@H](NC(=O)c1c(O)c2cc3ccccc3n2n(Cc2ccc(F)cc2)c1=O)C(=O)O` [Example 19, 2-(S)-{[4-(4-Fluoro-benzyl)-1-hydroxy-3-oxo-3,4-dihydro-4,4a-diaza-fluorene-2-carbonyl]-amino}-propionic acid] was run?
Answer: The inhibition at 50 µM was 99%.

Question: Which inhibition at 50 µM does the source give for `CCCCCCn1c(=O)c(C(=O)NCC(=O)O)c(O)c2cccn21` [Example 20, [(1-Hexyl-4-hydroxy-2-oxo-1,2-dihydro-pyrrolo[1,2-b]pyridazine-3-carbonyl)-amino]-acetic acid] here?
Answer: The inhibition at 50 µM was 97%.

Question: `O=C(O)CNC(=O)c1c(O)c2cc3cc(F)ccc3n2n(Cc2ccc(F)cc2)c1=O` [Example 21, {[7-Fluoro-4-(4-fluoro-benzyl)-1-hydroxy-3-oxo-3,4-dihydro-4,4a-diaza-fluorene-2-carbonyl]-amino}-acetic acid] was tested. Which inhibition at 50 µM did it give?
Answer: Its inhibition at 50 µM is 99%.

Question: How did the inhibition at 50 µM turn out when `O=C(O)CNC(=O)c1c(O)c2cc(Cl)cn2n(Cc2ccc(C(F)(F)F)cc2)c1=O` [Example 22, {[6-Chloro-4-hydroxy-2-oxo-1-(4-trifluoromethyl-benzyl)-1,2-dihydro-pyrrolo[1,2-b]pyridazine-3-carbonyl]-amino}-acetic acid] was run?
Answer: Its inhibition at 50 µM is 98%.

Question: How did the inhibition at 50 µM turn out when `C[C@H](NC(=O)c1c(O)c2cc(Cl)cn2n(Cc2ccc(C(F)(F)F)cc2)c1=O)C(=O)O` [Example 23, 2-(S)-{[6-Chloro-4-hydroxy-2-oxo-1-(4-trifluoromethyl-benzyl)-1,2-dihydro-pyrrolo[1,2-b]pyridazine-3-carbonyl]-amino}-propionic acid] was run?
Answer: Its inhibition at 50 µM is 98%.

Question: How did the inhibition at 50 µM turn out when `C[C@H](NC(=O)c1c(O)c2cccn2n(Cc2ccc(C(F)(F)F)cc2)c1=O)C(=O)O` [Example 24, 2-(S)-{[4-Hydroxy-2-oxo-1-(4-trifluoromethyl-benzyl)-1,2-dihydro-pyrrolo[1,2-b]pyridazine-3-carbonyl]-amino}-propionic acid] was run?
Answer: The inhibition at 50 µM was 98%.

Question: How did the inhibition at 200 µM turn out when `CC[C@H](NC(=O)c1c(O)c2cccn2n(Cc2ccc(C(F)(F)F)cc2)c1=O)C(=O)O` [Example 25, 2-(S)-{[4-Hydroxy-2-oxo-1-(4-trifluoromethyl-benzyl)-1,2-dihydro-pyrrolo[1,2-b]pyridazine-3-carbonyl]-amino}-butyric acid] was run?
Answer: The inhibition at 200 µM was 98%.

Question: `O=C(O)CNC(=O)c1c(O)c2cc(Cl)cn2n(Cc2ccc(F)cc2)c1=O` [Example 26, {[6-Chloro-4-hydroxy-2-oxo-1-(4-fluoro-benzyl)-1,2-dihydro-pyrrolo[1,2-b]pyridazine-3-carbonyl]-amino}-acetic acid] was tested. Which inhibition at 67 µM did it give?
Answer: Its inhibition at 67 µM is 98%.

Question: With `C[C@H](NC(=O)c1c(O)c2cc(Cl)cn2n(Cc2ccc(F)cc2)c1=O)C(=O)O` [Example 27, 2-(S)-{[6-Chloro-1-(4-fluoro-benzyl)-4-hydroxy-2-oxo-1,2-dihydro-pyrrolo[1,2-b]pyridazine-3-carbonyl]-amino}-propionic acid] as the compound, how does the inhibition at 67 µM read?
Answer: The inhibition at 67 µM was 95%.

Question: With `O=C(O)CNC(=O)c1c(O)c2cc(Cl)cn2n(Cc2ccc(Cl)cc2)c1=O` [Example 28, {[6-Chloro-1-(4-chloro-benzyl)-4-hydroxy-2-oxo-1,2-dihydro-pyrrolo[1,2-b]pyridazine-3-carbonyl]-amino}-acetic acid] as the compound, how does the inhibition at 67 µM read?
Answer: Its inhibition at 67 µM is 100%.

Question: Which inhibition at 67 µM does the source give for `C[C@H](NC(=O)c1c(O)c2cc(Cl)cn2n(Cc2ccc(Cl)cc2)c1=O)C(=O)O` [Example 29, 2-(S)-{[6-Chloro-1-(4-chloro-benzyl)-4-hydroxy-2-oxo-1,2-dihydro-pyrrolo[1,2-b]pyridazine-3-carbonyl]-amino}-propionic acid] here?
Answer: The inhibition at 67 µM was 100%.

Question: With `CC[C@H](NC(=O)c1c(O)c2cc(Cl)cn2n(Cc2ccc(Cl)cc2)c1=O)C(=O)O` [Example 30, 2-(S)-{[6-Chloro-1-(4-chloro-benzyl)-4-hydroxy-2-oxo-1,2-dihydro-pyrrolo[1,2-b]pyridazine-3-carbonyl]-amino}-butyric acid] as the compound, how does the inhibition at 67 µM read?
Answer: Its inhibition at 67 µM is 94%.
